Marks after values point to notes of the source that are not given here.
Assay type: in vivo
Details: rat, PY 4 mg/kg oral; for Total amount in brain (tissue weight): whole brain; for Total amount in cecum (tissue weight): whole cecum; for Total amount in colon (tissue weight): whole colon; for Total amount in heart (tissue weight): whole heart; for Total amount in ileum (tissue weight): whole ileum; for Total amount in kidney (tissue weight): whole kidney; for Total amount in liver (tissue weight): whole liver; for Total amount in lung (tissue weight): whole lung; for Total amount in spleen (tissue weight): whole spleen; for Total amount in stomach (tissue weight): whole stomach; for Total amount in testes (tissue weight): whole testes; for Total amount in tongue (tissue weight): whole tongue; for Total amount in feces: 24 hr feces collection; for Total amount in duodenum (tissue weight): whole duodenum; for Total amount in jejunum (tissue weight): whole jejunum
[1] = 24 hr urine collection, mean ± SD, unit ppb printed
[2] = 24 hr, wet-g, mean ± SD, unit ppb printed
[3] = 24 hr, mean ± SD, unit ppb printed

| SMILES | Concentration in urine [1] | Concentration in cecum [2] | Concentration in colon [2] | Concentration in heart [2] | Concentration in ileum [2] | Concentration in jejunum [2] | Concentration in kidney [2] | Concentration in liver [2] | Concentration in lung [2] | Concentration in plasma [3] | Total amount in cecum (tissue weight) (24 hr, mean ± SD) | Total amount in colon (tissue weight) (24 hr, mean ± SD) | Total amount in heart (tissue weight) (24 hr, mean ± SD) | Total amount in ileum (tissue weight) (24 hr, mean ± SD) | Total amount in kidney (tissue weight) (24 hr, mean ± SD) | Total amount in liver (tissue weight) (24 hr, mean ± SD) | Total amount in lung (tissue weight) (24 hr, mean ± SD) | Total amount in stomach (tissue weight) (24 hr, mean ± SD) | Total amount in testes (tissue weight) (24 hr, mean ± SD) | Total amount in jejunum (tissue weight) (24 hr, mean ± SD) | further results |
| --- | --- | --- | --- | --- | --- | --- | --- | --- | --- | --- | --- | --- | --- | --- | --- | --- | --- | --- | --- | --- | --- |
| O=C(O)[C@H]1O[C@@H](Oc2ccc3ccc4cccc5ccc2c3c45)[C@H](O)[C@@H](O)[C@@H]1O [PYOG, Pyrene-1-glucuronide] | 10.1 × 10^3 ± 400^c,d ppb | 1.4 × 10^3 ± 100^d ppb | 1.2 × 10^3 ± 300^d ppb | 1.1 × 10^3 ± 200^d ppb | 170.1 × 10^3 ± 700^a ppb | 87.1 × 10^3 ± 400^b ppb | 20.6 × 10^3 ± 100^c,d ppb | 10.2 × 10^3 ± 300^c,d ppb | 2.4 × 10^3 ± 900^c,d ppb | 446.0 ± 30^d ppb | (950 ± 70) ng | (1.0 × 10^3 ± 200) ng | (860 ± 140) ng | (58 × 10^3 ± 300) ng | (18 × 10^3 ± 880) ng | (70 × 10^3 ± 220) ng | (1.7 × 10^3 ± 640) ng | (1.7 × 10^3 ± 100) ng | (1.1 × 10^3 ± 390) ng |  | Share of PY excreted via urine as PYOG (24 hr urine): around 10%; Concentration in brain (24 hr, brain, wet-g, mean ± SD, unit ppb printed): 210 ± 60^d ppb; Concentration in duodenum (24 hr, duodenum, wet-g, mean ± SD, unit ppb printed): 65.9 × 10^3 ± 800^b,c ppb; Concentration in spleen (24 hr, spleen, wet-g, mean ± SD, unit ppb printed): 790 ± 20^d ppb; Concentration in stomach [2]: 1.7 × 10^3 ± 10^d ppb; Concentration in testes [2]: 1.0 × 10^3 ± 360^d ppb; Concentration in tongue (24 hr, tongue, wet-g, mean ± SD, unit ppb printed): 1.4 × 10^3 ± 500^d ppb; Total amount in brain (tissue weight) (24 hr, mean ± SD): (310 ± 100) ng; Total amount in spleen (tissue weight) (24 hr, mean ± SD): (380 ± 120) ng; Total amount in tongue (tissue weight) (24 hr, mean ± SD): (420 ± 110) ng |
| c1cc2ccc3cccc4ccc(c1)c2c34 [PY, Pyrene] | 4.3 ± 0.0^d,e ppb |  |  |  |  |  |  |  |  |  | (33.0 ± 4.8) ng | (32.0 ± 7.7) ng | (12.7 ± 1.5) ng | (22.0 ± 1.7) ng | (12.1 ± 2.0) ng | (124.5 ± 20.4) ng | (10.7 ± 0.2) ng | (22.4 ± 4.1) ng | (13.3 ± 3.7) ng | (34.5 ± 14.8) ng | Total amount in feces (mean ± SD): (380.9 ± 31.2) ng; Total amount in urine (24 hr urine collection, mean ± SD): (40.7 ± 9.6) ng; Total amount in brain (tissue weight) (24 hr, mean ± SD): (17.5 ± 1.5) ng; Total amount in duodenum (tissue weight) (24 hr, mean ± SD): (19.4 ± 5.3) ng; Total amount in spleen (tissue weight) (24 hr, mean ± SD): (12.4 ± 0.8) ng; Total amount in tongue (tissue weight) (24 hr, mean ± SD): (11.4 ± 0.4) ng |
| O=S(=O)(O)Oc1ccc2ccc3cccc4ccc1c2c34 [PYOS, Pyrene-1-sulfate] | 13 ± 7^b ppb | 89 ± 58^a,b ppb | 54 ± 20^b ppb | 12 ± 4^b ppb | 261 ± 21^a ppb | 39 ± 17^b ppb | 76 ± 38^a,b ppb | 96 ± 38^a,b ppb | 38 ± 13^b ppb | 2 ± 1^b ppb | (57 ± 35) ng | (47 ± 16) ng | (9 ± 3) ng | (96 ± 10) ng | (67 ± 33) ng | (650 ± 260) ng | (29 ± 9) ng | (11 ± 1) ng | (12 ± 3) ng | (48 ± 21) ng | Concentration in stomach [2]: 11 ± 1^b ppb; Concentration in testes [2]: 11 ± 3^b ppb |
| Oc1ccc2ccc3cccc4ccc1c2c34 [PYOH, 1-hydroxypyrene] | 546 ± 78^b ppb | 59.4 × 10^3 ± 800^a,b ppb | 13 × 10^3 ± 800^b ppb |  |  |  |  |  |  |  | (40.1 × 10^3 ± 100) ng | (11.4 × 10^3 ± 700) ng |  | (4.1 × 10^3 ± 400) ng | (135 ± 19) ng | (8.5 × 10^3 ± 100) ng |  | (871 ± 64) ng | (92 ± 37) ng | (1.6 × 10^3 ± 200) ng | Share of PY excreted via feces as PYOH (24 hr feces): ~70%; Total amount in feces (mean ± SD): (755.8 × 10^3 ± 700) ng; Total amount in duodenum (tissue weight) (24 hr, mean ± SD): (441 ± 29) ng |

Reference: PMC4638293 (The Journal of Veterinary Medical Science, 2015)
